Molecules are shown by their SMILES.

For this test, the target named is T1, Angiotensin II Receptor (Bos taurus, UniProt P25104).
T1 construct: The brownish tissue forming the adrenal cortex is scraped off and finely minced with scissors before homogenization; tissue local slaughter house (maxwell-Cohen); host or cells: beef adrenal cortex, 100,000 x g microsomal membranes
T1 sequence (P25104 1-359): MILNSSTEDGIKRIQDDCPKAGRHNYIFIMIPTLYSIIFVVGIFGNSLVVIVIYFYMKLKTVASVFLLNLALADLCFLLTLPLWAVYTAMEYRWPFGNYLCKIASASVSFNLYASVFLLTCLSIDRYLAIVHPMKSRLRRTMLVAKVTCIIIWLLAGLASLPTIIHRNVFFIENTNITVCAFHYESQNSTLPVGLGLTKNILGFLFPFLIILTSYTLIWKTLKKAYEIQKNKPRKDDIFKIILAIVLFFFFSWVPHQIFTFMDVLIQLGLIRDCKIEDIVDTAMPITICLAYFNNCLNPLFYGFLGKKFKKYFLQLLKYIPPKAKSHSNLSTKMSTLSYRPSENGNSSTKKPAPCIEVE
Briefly: Receptor Binding Assay: displacement of [^125 I](Sar^1,Ile^8)AngII from adrenal cortex microsomal membranes. On the set-up: species or system beef (bovine adrenals). The source says:
Beef adrenals are obtained from a local slaughter house (maxwell-Cohen). [^125 I](Sar^1,Ile^8)AngII, S.A. 2200 Ci/mmole, is purchased from Dupont (NEN®, Boston, Mass.). All unlabeled AngII analogs, Dimethylsulfoxide (DMSO), nucleotides, bovine serum albumin (BSA) are purchased from Sigma Chemical Co., St. Louis, Mo. U.S.A.
Approximately sixteen (16) to twenty (20) beef adrenal glands are processed as follows: fresh adrenal glands received on crushed ice are cleaned of fatty tissues and the tough membranes encapsulating the glands are removed and discarded. The brownish tissue forming the adrenal cortex is scraped off and finely minced with scissors before homogenization. Care is taken to avoid contamination with medullary tissue during dissection. The scraped cortices are suspended in twenty volumes of an ice-cold buffer medium consisting of 10 mM Tris.HCl (pH 7.4 at 22° C.) and containing 1.0 mM EDTA and 0.2M sucrose. Unless otherwise indicated, all subsequent operations are done at 4° C. […] The homogenate is centrifuged first at low speed (3,000× g) for 10 min. The resulting pellet is discarded and the supernatant fluid recentrifuged at 10,000× g for 15 minutes to give a P2 pellet. This P2 pellet is discarded and the liquid phase is carefully decanted off in clean centrifuge tubes and recentrifuged at high speed (100,000× g) for 60 min. The translucent final pellet is harvested and combined in a small volume (20-50.0 ml) of 50.0 mM Tris.HCl buffer, pH 7.2. A 100 ul aliquot is withdrawn and the protein content of the preparation is determined by the Lowry's method (Lowry, O. H., Rosebrough, N. F., Parr, A. L. and Randall, R. J., Protein measurement with Folin phenol reagent. J. Biol. Chem., 48, 265-275; 1951). The pelleted membrane is reconstituted in 50.0 mM Tris.HCl buffer containing 0.1 mM of phenylmethylsulfonyl fluoride (PMSF) to give approximately a protein concentration of 2.5 mg per ml of tissue suspension. The membrane preparation is finally aliquoted in 1.0 ml volumes and stored at -70° C. until use in the binding assays.
The binding of [^125 I](Sar^1,Ile^8)AngII to microsomal membranes is initiated by the addition of reconstituted membranes (1:10 vols.) in freshly made 50.0 mM Tris.HCl buffer, pH 7.4 containing 0.25% heat inactivated bovine serum albumin (BSA): 80 ul membrane protein (10 to 20 ug/assay) to wells already containing 100 ul of incubation buffer (as described above) and 20 ul [^125 I](Sar^1,ILE^8)AngII (Specific Activity, 2200 Ci/mmole). Non-specific binding is measured in the presence of 1.0 uM unlabeled (Sar^1,ILE^8)AngII, added in 20 ul volume. […] In competition studies, experimental compounds are diluted in dimethylsulfoxide (DMSO) and added in 20 ul to wells before the introduction of tissue membranes. […] Assays are performed in triplicate. The wells are left undisturbed for 60 min. at room temperature. Following incubation, all wells are harvested at once with a Brandel® Harvester especially designed for a 96 well plate (Brandel® Biomedical Research & Development Labs. Inc., Gaithersburg, Md., U.S.A.). The filter discs are washed with 10×1.0 ml of cold 0.9% NaCl to remove unbound ligand. […] This method is routinely used. The filters are removed from the filter grid and counted in a Parkard® Cobra Gamma Counter for 1 min. (Packard Instrument Co., Downers Grove, Ill., U.S.A.). The binding data are analyzed by the non-linear interactive "LUNDON-1" program (LUNDON SOFTWARE Inc., Cleveland, Ohio U.S.A.).
The term IC50 denotes the concentration that inhibits the measured activity by half. Turning to `CCCCc1nc2ccc([C@H]3[C@@H]4C(=O)OC[C@@H]4ON3C)cc2c(=O)n1Cc1ccc(-c2ccccc2-c2nnn[nH]2)cc1` (relative stereo) [Example 53], the IC50 turned out to be 71 nM.
Next, `CCCCc1nc2ccc([C@H]3[C@@H]4C5CCC(C5)[C@@H]4ON3C)cc2c(=O)n1Cc1ccc(-c2ccccc2-c2nnn[nH]2)cc1` (stereo partly drawn) [Example 51]: 150 nM.
For `CCCCc1nc2ccc([C@@H]3[C@H]4C(=O)CCC[C@H]4ON3C)cc2c(=O)n1Cc1ccc(-c2ccccc2-c2nnn[nH]2)cc1` (relative stereo) [Example 49], the IC50 was determined as 880 nM.
Molecule `CCCCc1nc2ccc([C@H]3[C@@H]4C(=O)OC[C@@H]4ON3Cc3ccccc3)cc2c(=O)n1Cc1ccc(-c2ccccc2-c2nnn[nH]2)cc1` (relative stereo) [Example 57] came in with an IC50 of 180 nM.
On to `CCCCc1nc2ccc([C@H]3[C@@H]4C(=O)CC[C@@H]4ON3Cc3ccccc3)cc2c(=O)n1Cc1ccc(-c2ccccc2-c2nnn[nH]2)cc1` (relative stereo) [Example 55], for which the IC50 amounted to 78 nM.
The molecule `CCCCc1nc2ccc([C@H]3[C@@H]4C(=O)CC[C@@H]4ON3C)cc2c(=O)n1Cc1ccc(-c2ccccc2-c2nnn[nH]2)cc1` (relative stereo) [Example 48] showed an IC50 of 57 nM.
